Measured values as given in paper PMC9610647, “Acetylcholinesterase Inhibitory Activities of Essential Oils from Vietnamese Traditional Medicinal Plants” (Molecules, 2022).

Experiments:
AChE = details: cited from earlier work
electric eel AChE = target: T1, electric eel AChE (Electrophorus electricus, UniProt O42275); assay: Acetylcholinesterase (AChE) inhibition assay, Ellman method; type: biochemical; details: for inhibition at 4 µg/mL: read-out: Acetylcholinesterase inhibitory activity at 4 µg/mL; for inhibition at 20 µg/mL: read-out: Acetylcholinesterase inhibitory activity at 20 µg/mL; for inhibition at 100 µg/mL: read-out: Acetylcholinesterase inhibitory activity at 100 µg/mL; for inhibition at 500 µg/mL: read-out: Acetylcholinesterase inhibitory activity at 500 µg/mL
T1 construct: purchased Sigma-Aldrich
Protocol: Acetylcholinesterase (AChE) inhibitory activity of essential oil was determined according to the method described by Ellman and our previous study. The stock solution was obtained by dissolving the essential oil in DMSO (Merck), which was then diluted with H2O (deionized distilled water) to obtain different experimental concentrations. Each solution mixture consisted of 140 μL of phosphate buffer solution (pH: 8), 20 μL of essential oil at concentrations of 500, 100, 20, and 4 μg/mL, and 20 μL of the enzyme AChE (0.25 IU/mL, Sigma-Aldrich, St. Louis, MO, USA). The reaction mixtures were transferred to the test wells of a 96-well microtiter plate and incubated at 25 °C for 15 min. Then, solutions of 10 μL dithiobisnitrobenzoic acid (DTNB, 2.5 mM, Sigma-Aldrich) and 10 μL acetylthiocholine iodide (ACTI, 2.5 mM, Sigma-Aldrich) were added to each of the test wells and incubation continued for 10 min at 25 °C. […] Each test was carried out in triplicate.

[1] = tested on: AChE of bovine erythrocytes; details: cited from earlier work
[2] = tested on: AChE from Electrophorus electricus (electric eel); details: cited from earlier work
[3] = tested on: AChE from human erythrocytes; details: cited from earlier work
[4] = IC50 (μM), IC50 ± standard deviation
[5] = IC50, IC50 ± standard deviation

T1 sequence (O42275 24-633): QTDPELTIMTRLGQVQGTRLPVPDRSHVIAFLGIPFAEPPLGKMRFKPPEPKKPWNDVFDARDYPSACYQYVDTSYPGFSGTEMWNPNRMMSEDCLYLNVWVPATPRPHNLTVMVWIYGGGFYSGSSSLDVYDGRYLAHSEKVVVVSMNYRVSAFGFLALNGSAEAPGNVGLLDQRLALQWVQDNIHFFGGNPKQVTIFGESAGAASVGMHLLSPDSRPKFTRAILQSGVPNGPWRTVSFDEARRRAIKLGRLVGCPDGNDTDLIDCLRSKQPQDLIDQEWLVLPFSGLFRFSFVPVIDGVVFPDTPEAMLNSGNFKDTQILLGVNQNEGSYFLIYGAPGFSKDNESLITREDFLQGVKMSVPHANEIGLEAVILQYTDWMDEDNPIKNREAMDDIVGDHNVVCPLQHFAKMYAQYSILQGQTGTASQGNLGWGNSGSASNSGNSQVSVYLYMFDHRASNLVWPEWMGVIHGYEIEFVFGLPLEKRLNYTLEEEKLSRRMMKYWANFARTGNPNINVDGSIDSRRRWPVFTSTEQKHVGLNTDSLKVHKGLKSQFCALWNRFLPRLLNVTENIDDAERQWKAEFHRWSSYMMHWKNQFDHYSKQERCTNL

For `CC1=CC=C(C(C)C)CC1` [α-terpinene], the IC50 (AChE) is given as 1000 µM.
In the case of `CC1(C)C2CC=C(C=O)C1C2` (stereo not drawn) [Myrtenal], the IC50 (AChE) is listed as 170 µM.
`C=C(C)C1CC=C(C)C(O)C1` (stereo not drawn) [trans-Carveol] showed an IC50 (electric eel AChE; [4]) of 676 µM, an IC50 (electric eel AChE; [5]) of 676 µM and an inhibition at 4 µg/mL (electric eel AChE) of 1.19%. For the same compound, the inhibition at 20 µg/mL (electric eel AChE) was 16.8%, the inhibition at 100 µg/mL (electric eel AChE) was 55.3% and the inhibition at 500 µg/mL (electric eel AChE) was 76.9%.
Work on `C=C1CCC2CC1C2(C)C` (stereo not drawn) [β-Pinene] yielded an IC50 (electric eel AChE; [4]) of 525 ± 42.4 µM, an IC50 (electric eel AChE; [5]) of 524 µM and an inhibition at 4 µg/mL (electric eel AChE) of 20.9%. It also gave an inhibition at 20 µg/mL (electric eel AChE) of 28.9%, an inhibition at 100 µg/mL (electric eel AChE) of 58.9% and an inhibition at 500 µg/mL (electric eel AChE) of 86.5%. For the same compound, the IC50 [1] was roughly 1500 µM.
In the case of `CC1=CCC2CC1C2(C)C` (stereo not drawn) [α-Pinene, reference compound], the IC50 [1] is given as 660 ± 40 µM.
With `C=C(C)C1CC=C(C)CC1` (stereo not drawn) [Limonene] the IC50 (electric eel AChE; [4]) was 390 ± 30 µM, the IC50 (electric eel AChE; [5]) was 390 µM and the inhibition at 4 µg/mL (electric eel AChE) was 18.2%. For the same compound, the inhibition at 20 µg/mL (electric eel AChE) was 27%, the inhibition at 100 µg/mL (electric eel AChE) was 67.7% and the inhibition at 500 µg/mL (electric eel AChE) was 90.8%.
For `CC1=CC[C@@H](C(C)(C)O)CC1` [α-terpineol], the IC50 (AChE) is given as 8400 ± 400 µM.
In the case of `C=C1CCC2(C(C)C)CC12` (stereo not drawn) [Sabinene], the IC50 (AChE) is listed as 1300 ± 21 µM.
For `CC1=CCCC(C)=CCC(C)(C)C=CC1` [α-Humulene], the IC50 (electric eel AChE; [4]) was 785 ± 66 µM, the IC50 (electric eel AChE; [5]) was 785 µM and the inhibition at 4 µg/mL (electric eel AChE) was 19.4%. It also gave an inhibition at 20 µg/mL (electric eel AChE) of 25.1%, an inhibition at 100 µg/mL (electric eel AChE) of 44.3% and an inhibition at 500 µg/mL (electric eel AChE) of 72.8%.
With `C=C1CC[C@H]2O[C@]2(C)CC[C@@H]2[C@@H]1CC2(C)C` [Caryophyllene Oxide] the IC50 (electric eel AChE; [4]) was 1450 ± 61 µM, the IC50 (electric eel AChE; [5]) was 1450 µM and the inhibition at 4 µg/mL (electric eel AChE) was -2.11%. It also gave an inhibition at 20 µg/mL (electric eel AChE) of 0.49%, an inhibition at 100 µg/mL (electric eel AChE) of 16.9% and an inhibition at 500 µg/mL (electric eel AChE) of 74%. The AChE inhibition ([2]; 200 µg/mL) was 41.46 ± 2.66% and the AChE inhibition ([1]; 250 µg/mL) was 35 ± 4.7%.
In the case of `CC12CCC(CC1)C(C)(C)O2` [1,8-Cineole, reference compound], the IC50 [2] is given as 6 µM and the IC50 [1] is given as 390 ± 60 µM.
In the case of `C=C1CCC=C(C)CCC2C1CC2(C)C` (stereo not drawn) [(E)-β-Caryophyllene], the IC50 (electric eel AChE; [4]) is reported as 436 ± 29.9 µM, the IC50 (electric eel AChE; [5]) is reported as 436 µM and the inhibition at 4 µg/mL (electric eel AChE) is reported as 6.09%. For the same compound, the inhibition at 20 µg/mL (electric eel AChE) was 26.3%, the inhibition at 100 µg/mL (electric eel AChE) was 52.9% and the inhibition at 500 µg/mL (electric eel AChE) was 79%. The “inhibition of AChE” value ([2]; concentration 0.06 mM) was 32% and the IC50 [3] was 147 ± 15 µM.
